In patent publication US4350676A, “Ophthalmic use of carboxyfluorescein” (priority 1981, dated 1982):
Like-named read-outs stand apart in the source and are kept apart here.

How the values were obtained:
[1] = test system: cornea; details: topical; cited from earlier work
[2] = test system: blood-ocular barriers (choroid and retina); assay type: in vivo, male Wistar rats; details: rat, iv
From the text: To determine whether a less membrane permeable dye than fluorescein has value as a probe of the structural and functional integrity of the blood-ocular barriers we have undertaken studies of carboxyfluorescein, a compound with the same fluorescence characteristics as fluorescein, but with lower lipid solubility at physiological pH (7). In particular, the lipid solubility of carboxyfluorescein was compared with fluorescein by measuring dye partitioning between octanol and aqueous buffer at different pH to determine solubility behavior relevant to the permeability of cell membranes in vivo. Studies were then made of the ocular distribution carboxyfluorescein in rats after intravenous injection using quantitative fluorescence microscopy; and compared to the results for fluorescein. The plasma binding of carboxyfluorescein was also studied and compared to fluorescein.
(§1) Intra-ocular dye distribution: Young male Wistar rats (180-250 g) under pentobarital anesthesia (50 mg/kg i.p.) were injected intravenously with carboxyfluorescein or fluorescein solutions (pH 7.4) at doses of 12.5, 62.5 and 125 mg/kg. One minute after dye injection, the eyes were removed and immediately frozen in isopentane cooled to -110° C. by a liquid nitrogen bath. Between 2 and 4 minutes after injection a blood sample from the abdominal aorta was drawn into a heparinized syringe for determination of the concentration of unbound dye in plasma. The frozen eyes were dried under vacuum at -35° C. and embedded in paraffin. After embedding the eyes were stored under vacuum at -20° C. to minimize the development of autofluorescence. Additional eyes from normal rats not injected with dye were processed and stored identically for measurement of tissue autofluorescence. Immediately prior to examination with the fluorescence microscope, sections were cut at a thickness of 12 microns, placed on glass slides, and mounted with xylene.
Fluorescence intensity in small areas of the tissue sections was measured with a 450 u fiber optic probe placed in the object plane of an ocular and connected to a photomultiplier tube. An amplified signal from the photomultiplier was recorded with a digital voltmeter. The illumination system consisted of a 50 W high pressure mercury light source and an epifluorescence condensor equipped with a 455-490 nm exciter filter, a 510 nm dichroic beam splitter, and a 520 nm barrier filter. All measurements were performed using a 63X oil objective (N.A. 1.4). With this magnification, an aperture in the object plane restricted the area of illumination to a circle, 24 microns in diameter. The fiber optic probe covered a specimen field, 6 microns in diameter, centered in the larger illuminated field.
Fluorescence intensity of four tissue layers was recorded in the posterior segment: the inner plexiform, outer nuclear, and photoreceptor outer segment layers of the retina, and the choriocapillaris. Each of these layers is of sufficient width so that the illuminated area encompassed a homogeneous field. Foci of intense fluorescence, such as dye filled retinal capillaries, within the illumination field but outside the detection area of the fiber optic probe, can increase the recorded signal by light scatter into the detection area. Fields containing such bright foci were avoided. Examination of the section, location of the area for measurement, and focusing of the image was accomplished under dim green illumination from a tungsten lamp. The illumination was then switched to the fluorescence system, and the maximum value of fluorescence intensity was recorded as voltage. Measurements were made at 12 sites in each layer to obtain the average fluorescence intensities for an individual eye. These values were then corrected for tissue autofluorescence by subtracting the average fluorescence intensity of each layer in eyes from animals not injected with dye. […]

[3] = Dialyzable (unbound) fraction of dye in human plasma; assay type: in vitro ADME; details: human plasma, 37° C., read-out: Dialyzable fraction (mean ± S.E.M.)
Procedure: (§2) Measurement of unbound dye in plasma: Plasma was separated by centrifugation from the heparinized blood obtained from rats injected with sodium fluorescein or carboxyfluorescein in the intraocular dye distribution study. The plasma was dialyzed for 24 hours at 37° C. against 0.1 M phosphate buffer at pH 7.4 using cellulose dialysis tubing with a 3500 molecular weight cut-off. Dye concentration was measured in the dialysate spectrofluorophotometrically and from this value calculated the unbound plasma dye concentration.
(§3) To study the fraction of unbound dye in human plasma, there was added small aliquots of carboxyfluorescein and sodium fluorescein solutions to plasma separated from heparinized human blood so that the final dye concentration in the plasma was between 10^-3 M and 10^-6 M. The plasma/dye mixture was incubated for 2 hours at 37° C. Then using the dialysis and measuring procedures described above, the ratio of unbound dye to total dye in the plasma mixture was calculated.

[4] = cited from earlier work
[5] = cited from earlier work; remark: listed apart in the source
[6] = test system: active transport system in the anterior uvea; details: outward, from eye to blood; cited from earlier work
[7] = physchem; details: for logD at 10 µM / logD at 1000 µM / Partition ratio octanol/buffer: octanol/0.1 m phosphate buffer
Procedure: Octanol/buffer partition ratios: The ratio of concentrations of a given solute in equilibrium distribution between two immiscible solvents is termed the partition coefficient. This expression properly refers only to the distribution of a single molecular species between the two phases. […] Total dye concentration in the two solvent phases was measured without correction for ionization or self-association and the recommended term, "partition ratio", is used to refer to these uncorrected distributions.
Carboxyfluorescein (Eastman Kodak Co., Rochester) or sodium fluorescein (Sigma Chemical Co., St. Louis) was dissolved at concentrations of 10^-3 M or 10^-5 M in octanol-saturated 0.1 M phosphate buffer at different pH values between 6.40 and 8.03. The aqueous dye solutions were equilibrated with equal volumes of buffer-saturated octanol by 100 inversions during 5 minutes, and the phases were separated by centrifugation. Dye concentrations were measured spectrofluorophotometrically at excitation and emmision wavelengths of 487 and 512 nm, respectively, with an Aminco-Bowman Ratio Spectrofluorophotometer.
Two methods were used to calculate partition ratios. In the first, the dye concentration in the aqueous phase was measured before (Cb) and after (Ca) partitioning, and the ratio was obtained from the equation:
P.R.=Coct/Caq=(Cb -Ca)/Ca,
where Coct and Caq are the dye concentration in the octanol and aqueous phases respectively after equilibration. In the second method, concentration in the octanol phase was determined by extracting the dye from octanol with an equal volume 0.1 N NaOH. […] Therefore, dye concentration in the first base extract was accepted as the concentration in the octanol phase and calculated the partition ratio from the equation: […]

[8] = Measurement of unbound dye in plasma of injected rats (dialysis); assay type: in vivo, male Wistar rats; details: rat; for Plasma unbound dye concentration: blood 2-4 min after injection
Procedure: as §1, §2

[9] = test system: human plasma proteins; test: Dialyzable (unbound) fraction of dye in human plasma; assay type: in vitro ADME; details: for Dialyzable fraction (mean ± S.E.M.): human, plasma
Procedure: as §2, §3

[10] = test system: rabbit eyes
Procedure: Carboxyfluorescein was prepared as a 1% solution in water, buffered to pH 7.4. Carboxyfluorescein was made into strip form, using strips of #1 filter paper, impregnated with carboxyfluorescein and allowed to dry. The carboxyfluorescein was applied to rabbit eyes both with the paper impregnated strip and also as a 1% topical drop.

## O=C1OC2(c3ccc(O)cc3Oc3cc(O)ccc32)c2ccccc21 [fluorescein]
[1]
  Corneal penetration and artificial aqueous flare: its ready penetration through the cornea into the aqueous humor creates an artificial aqueous flare
[2]; in vivo
  Fluorescence of iris epithelium: brightly stains the cells of the ciliary and iris epithelium
  Outer segment layer values relative to deeper retinal layers: twice as high
[2]; in vivo, 12.5 mg/kg
  Tissue relative fluorescence intensity, IPL (mean ± S.E.M.): .021
  Tissue relative fluorescence intensity, ONL (mean ± S.E.M.): .011 ± .001
  Tissue relative fluorescence intensity, choroid (mean ± S.E.M.): .57 ± .03
  Tissue relative fluorescence intensity, outer segments (mean ± S.E.M.): .032 ± .003
[2]; in vivo, 62.5 mg/kg
  Tissue relative fluorescence intensity, IPL (mean ± S.E.M.): .086
  Tissue relative fluorescence intensity, ONL (mean ± S.E.M.): .076 ± .004
  Tissue relative fluorescence intensity, choroid (mean ± S.E.M.): 2.7 ± .2
  Tissue relative fluorescence intensity, outer segments (mean ± S.E.M.): .153 ± .008
[2]; in vivo, 125 mg/kg
  Tissue relative fluorescence intensity, IPL (mean ± S.E.M.): .150
  Tissue relative fluorescence intensity, ONL (mean ± S.E.M.): .196 ± .011
  Tissue relative fluorescence intensity, choroid (mean ± S.E.M.): 5.7 ± .5
  Tissue relative fluorescence intensity, outer segments (mean ± S.E.M.): .452 ± .021
[2]; in vivo, 1 min
  Outer segment layer values relative to choroid: 6-8%
[3]; 10^-3 M
  fraction unbound at 1000 µM: 0.3 ± 0.02
[3]; 10^-4 M
  fraction unbound at 100 µM: 0.33 ± 0.03
[3]; 10^-5 M
  fraction unbound at 10 µM: 0.33 ± 0.01
[3]; 10^-6 M
  fraction unbound at 1 µM: 0.32 ± 0.02
[4]
  Partition coefficient octanol/artificial sea water: 0.6
[5]; dianion/monoanion
  pKa, divalent/monovalent anion: 6.7
[5]; second listed pKa
  pKa, monoanion/neutral molecule: 4.4
[5]; third listed pKa
  pKa, neutral molecule/cation: 2.2
[6]
  Substrate for active transport: serves as a substrate for an active transport system in the anterior uvea
[7]; pH 6.42
  logD at 10 µM: 1.58
  logD at 1000 µM: 1.54
[7]; pH 6.87
  logD at 10 µM: 0.69
  logD at 1000 µM: 0.708
[7]; pH 7.38
  logD at 10 µM: -0.194
  logD at 1000 µM: -0.292
[7]; pH 8.03
  logD at 10 µM: -1.52
  logD at 1000 µM: -1.42
[7]; octanol/buffer
  pH at which partition ratio reaches 1.0: 7.25
[8]; i.v. 12.5 mg/kg
  Plasma unbound dye concentration: .04 ± .03 mg/mL
[8]; i.v. 62.5 mg/kg
  Plasma unbound dye concentration: .18 ± .01 mg/mL
[8]; i.v. 125 mg/kg
  Plasma unbound dye concentration: .29 ± .01 mg/mL

## carboxyfluorescein
[2]; in vivo
  Fluorescence of iris stroma: the intensity of fluorescence is less than that seen with fluorescein
[2]; in vivo, 62.5 mg/kg
  Tissue relative fluorescence intensity, IPL (mean ± S.E.M.): .001
  Tissue relative fluorescence intensity, ONL (mean ± S.E.M.): .002 ± .001
  Tissue relative fluorescence intensity, choroid (mean ± S.E.M.): 8.0 ± .4
  Tissue relative fluorescence intensity, outer segments (mean ± S.E.M.): .008 ± .001
[2]; in vivo, 125 mg/kg
  Tissue relative fluorescence intensity, IPL (mean ± S.E.M.): .002
  Tissue relative fluorescence intensity, ONL (mean ± S.E.M.): .003 ± .001
  Tissue relative fluorescence intensity, choroid (mean ± S.E.M.): 7.8 ± .8
  Tissue relative fluorescence intensity, outer segments (mean ± S.E.M.): .006 ± .003
[2]; not told
  Permeability of blood-ocular barriers to intravascular dye: markedly less permeable to intravascular carboxyfluorescein than to fluorescein
[9]
  Binding to human plasma proteins compared with fluorescein: consistently less bound to human plasma proteins than fluorescein
[9]; 1 µM
  Dialyzable fraction (mean ± S.E.M.): .46 ± .01
[9]; 10 µM
  Dialyzable fraction (mean ± S.E.M.): .51 ± .03
[9]; 100 µM
  Dialyzable fraction (mean ± S.E.M.): .50 ± .01
[9]; 1000 µM
  Dialyzable fraction (mean ± S.E.M.): .61 ± .02
[7]; 10 µM, pH 6.42
  Partition ratio octanol/buffer: .037
[7]; 10 µM, pH 6.87
  Partition ratio octanol/buffer: .0030
[7]; 10 µM, pH 7.38
  Partition ratio octanol/buffer: .0007
[7]; 1000 µM, pH 6.42
  Partition ratio octanol/buffer: .033
[7]; 1000 µM, pH 6.87
  Partition ratio octanol/buffer: .0028
[7]; 1000 µM, pH 7.38
  Partition ratio octanol/buffer: .0008
[7]; 1000 µM, pH 8.03
  Partition ratio octanol/buffer: .00006
[7]; octanol/phosphate buffer, pH 6.4
  Partition ratio: below 0.1
[10]; corneal abrasion, observation 30 to 45 minutes
  Persistence of stain: persisted but lessened in intensity
[10]; experimental corneal abrasion
  Staining of corneal epithelial defect: densely stained the corneal epithelial defect
[10]; in vivo
  Hyperemia or corneal changes: no apparent hyperemia or corneal changes
  Reaction / subjective discomfort: did not react in a negative fashion
[10]; topical, blue light
  Visibility in tear film: seen in the tear film
[8]; in vivo, iv
  Plasma unbound dye concentration compared with fluorescein: significantly higher than in animals injected with fluorescein
